How the values were obtained:
[1] = system: FLT3 phosphorylation in parental Molm14 cells; experiment: Immunoblotting of phospho-FLT3 and downstream signaling, Molm14; type: cell-based, human; settings: parental Molm14, 2 hours, Western blot
Description: (§1) FIG. 1. Activity of compounds 1 and 2 against parental Molm14 cells harboring secondary kinase domain mutations associated with clinical resistance to active FLT3 TKIs. […] Each point represents the calculated IC50 from an independent experiment completed in triplicate. Cells were treated with inhibitor at increasing log doses (0.1 nM-10 μM) for 48 hours. Cell viability was analyzed through CellTiter GLO. […] Cells were exposed to increasing amounts of each drug for 2 hours. GAPDH1 represents loading control for phospho-ERK and ERK blots. GAPDH2 represents loading control for phosphor-STAT5, STAT5, phospho-S6 and S6. Each experiment was completed in triplicate. Representative images are shown.
Exponentially growing Molm-14 or Ba/F3 cells were plated with RPMI 1640+10% (vol/vol) FBS with the indicated amount of drug. Following 120 minute incubation at 37° C., cells were washed in PBS and lysed in HEPES lysis buffer supplemented with protease and phosphatase inhibitors and processed as previously described (39). Immunoblotting was performed using anti-phospho-tyrosine 4G10 antibody (Millipore Sigma) and anti-FLT3 antibody (Cell Signaling Technology) following immunoprecipitation with anti-FLT3 antibody from 500 μg of total protein. […]

[2] = system: FLT3 phosphorylation in Ba/F3 cells stably expressing FLT3-ITD in human plasma; experiment: Plasma inhibitory assay; type: cell-based; settings: for inhibition of FLT3 in the presence of human plasma, in words: 120 minutes, same concentrations as comparators
Description: A pitfall of some prior FLT3 inhibitors has been poor pharmacokinetic profiles. The plasma inhibitory assay identifies one pharmacokinetic profile by evaluating the activity of drugs in the presence of human plasma proteins that can sequester inhibitors in clinical experience.
Plasma Inhibitory Assay was performed as previously described with modifications (40). Ba/F3 cells (7×10^6 cells) stably expressing FLT3-ITD were resuspended in 1 mL of RPMI 1640+10% FBS or human plasma from a healthy control. All samples were collected under the University of California, San Francisco institutional review board (IRB)-approved cell banking protocol (CC #112514). Informed consent was obtained in accordance with the Declaration of Helsinki. The appropriate amount of drug was added and incubated at 37° C. for 120 minutes. Following, cells were washed in PBS and lysed in HEPES lysis buffer supplemented with protease and phosphatase inhibitors and processed as previously described (40,41). Immunoblotting was performed using anti-phospho-FLT3 and anti-FLT3 antibody (Cell Signaling).

[3] = system: HL60 cells (non-FLT3 driven); experiment: Cell viability assay (CellTiter GLO), HL60; type: cell-based, human; settings: HL60, 48 hours
Description: (§2) FIG. 1. […] Cells were treated with inhibitor at increasing log doses (0.1 nM-10 μM) for 48 hours. Cell viability was analyzed through CellTiter GLO. […] Cells were exposed to increasing amounts of each drug for 2 hours. GAPDH1 represents loading control for phospho-ERK and ERK blots. GAPDH2 represents loading control for phosphor-STAT5, STAT5, phospho-S6 and S6. Each experiment was completed in triplicate. Representative images are shown.
(§3) MV-4-11 and parental Molm-14 cells were a gift from Dr. Scott Kogan (University of California, San Francisco). HL60 and K562 cell lines were obtained from Charles Sawyers. […] Stable Ba/F3 lines were generated by retroviral infection as previously described (5). All cell lines were tested to be mycoplasma free and human cell lines were authenticated through STR profiling completed at the University of California, Berkeley.
(§4) Each triplicate was either dosed with drug or DMSO vehicle control. Drug dosing was completed at log doses ranging from 0.1 nM-10 μM. Cell viability was assessed after 48 hours using CellTiter GLO (Promega). Viability values were normalized to the vehicle control average. Numerical IC50 values were calculated in GraphPad Prism 7.

[4] = system: Ba/F3 cells transduced with mutagenized FLT3-ITD; experiment: Saturation mutagenesis resistance selection (XL1-Red mutagenized FLT3-ITD); type: cell-based; settings: Ba/F3 cells with FLT3-ITD mutant isoforms (FIG. 10)
From the text: FIG. 10. (A) Schematic depicting the saturation mutagenesis experimental design and the range of concentrations for compound 1 and compound 2 to select for resistant cells; (B) Population doublings of XL1-Red-mutagenized FLT3-ITD plasmid-transduced Ba/F3 cells in escalating concentrations of compound 1 and compound 2. Arrows indicate the timepoint of passage when a concentration of 0.1 million cells/mL was achieved; (C) Western blot analysis of lysates collected from transduced Ba/F3 cells cultured in (lane 1) vehicle; (lane 2) 120 nM of compound 1; (lane 3) 120n M of compound 2 (lane 4) Ba/F3 cells transduced with MSCVpuro; (lane M) size marker. […] Left table: identity of mutations detected at escalating concentrations of compounds 1 and 2. Right table: IC50 values of compounds 1 and 2 in Ba/F3 cells transformed to growth factor independence with FLT3-ITD and various mutant isoforms.
To determine if these compounds are potentially vulnerable to novel secondary mutations in FLT3-ITD, Ba/F3 cells were transduced with retrovirus generated using MSCVpuro/FLT3-ITD plasmid purified from the XL1-Red bacterial strain, which is deficient in DNA mismatch repair and introduces random point mutations. This assay has successfully identified point mutations for other FLT3 TKIs that were subsequently validated in samples obtained from patients with acquired resistance. […]

[5] = system: K562 cells (non-FLT3 driven); experiment: Cell viability assay (CellTiter GLO), K562; type: cell-based, human; settings: K562, 48 hours
Description: as §2, §3, §4

[6] = system: FLT3 phosphorylation in Molm14 D835Y cells; experiment: Immunoblotting of phospho-FLT3 and downstream signaling, Molm14 D835Y; type: cell-based, human; settings: 2 hours, Western blot
Description: as §1
Exponentially growing Molm-14 or Ba/F3 cells were plated with RPMI 1640+10% (vol/vol) FBS with the indicated amount of drug. Following 120 minute incubation at 37° C., cells were washed in PBS and lysed in HEPES lysis buffer supplemented with protease and phosphatase inhibitors and processed as previously described (39). Immunoblotting was performed using anti-phospho-tyrosine 4G10 antibody (Millipore Sigma) and anti-FLT3 antibody (Cell Signaling Technology) following immunoprecipitation with anti-FLT3 antibody from 500 μg of total protein. Immunoblotting of ERK, STAT5, S6 and GAPDH was performed with anti-phospho-ERK, anti-ERK, anti-phospho-STAT5, anti-STAT5, anti-phospho-S6, anti-S6 and anti-GAPDH antibody (Cell Signaling Technology)

[7] = system: normal donor bone marrow mononuclear cells (BM-MNC); experiment: Colony forming unit assay of normal bone marrow; settings: for impact on CFU-G counts/growth: equivalent multiples of Molm14 IC50, 14 days, three healthy donors
Description: FIG. 2. […] Normal bone marrow mononuclear cells (BM-MNC) were purchased from StemCell Technologies. 30,000 cells were plated in methylcellulose with increasing concentrations of either gilteritinib, 1, or 2. Blast forming unit-erythroid (BFU-E) and colony forming unit-granulocyte (CFU-G) were counted after 14 days incubation. Assay was completed in triplicate with three independent blood donors. Data shown is cumulated from all independent experiments. Error bars show one standard deviation and p values compared to control were calculated using a Student's t-test. NS indicates an insignificant p value, * indicates p value≤0.05, ** indicates p value≤0.01, *** indicates p value≤0.001, **** indicates p value≤0.0001
Bone marrow mononuclear cells (BM-MNC) of healthy donors (n=3) were purchased from StemCell Technologies (Vancouver, Canada). Cells were plated in a 35 mm dish in triplicate with methylcellulose medium at a concentration previously determined to form approximately 100 total colonies, usually 30,000 cells/mL and containing the appropriate amount of drug. Dishes were incubated for 14-15 days and visually assessed for erythrocyte burst-forming units and granulocyte-macrophage colony-forming units.

CN(C)CCNc1ncc(F)c(-c2cnc3cc(-c4cnn(C)c4)ccn23)n1 [Compound 1]
inhibition of FLT3 phosphorylation and downstream signaling, in words [1]: low nanomolar concentrations were sufficient to inhibit phosphorylation of FLT3
impact of the presence of plasma on activity ([2]; human plasma vs RPMI 1640+10% FBS): almost no impact
inhibition of FLT3 in the presence of human plasma, in words [2]: more potent inhibition of FLT3 in the presence of plasma compared to quizartinib and gilteritinib
activity in cell viability assay (IC50, FIG. 1A), in words [3]: neither compound displayed any concerning toxicity
resistance conferred by secondary FLT3 mutations that confer relative resistance to other FLT3 TKIs [4]: none of these were capable of conferring significant resistance
activity in cell viability assay (IC50, FIG. 1A), in words [5]: neither compound displayed any concerning toxicity
inhibition of FLT3 phosphorylation and downstream targets, in words [6]: potent inhibition of phosphorylation
impact on BFU-E counts/growth [7]: no significant impact on BFU-E growth at any concentration
impact on CFU-G counts/growth [7]: less impact on CFU-G growth than gilteritinib

CC(C)(C)c1cc(NC(=O)Cc2ccc(-c3cnc4cc(-c5cnn(CCN6CCOCC6)c5)ccc4n3)cc2)no1 [Compound 2, N-(5-(tert-butyl)isoxazol-3-yl)-2-(4-(6-(1-(2-morpholinoethyl)-1H-pyrazol-4-yl)quinoxalin-2-yl)phenyl) acetamide]
inhibition of FLT3 phosphorylation and downstream signaling, in words [1]: low nanomolar concentrations were sufficient to inhibit phosphorylation of FLT3
inhibition of FLT3 in the presence of human plasma, in words [2]: more potent inhibition of FLT3 in the presence of plasma compared to quizartinib and gilteritinib
activity in cell viability assay (IC50, FIG. 1A), in words [3]: neither compound displayed any concerning toxicity
resistance conferred by secondary FLT3 mutations that confer relative resistance to other FLT3 TKIs [4]: none of these were capable of conferring significant resistance
activity in cell viability assay (IC50, FIG. 1A), in words [5]: neither compound displayed any concerning toxicity
concentration that fully ablated FLT3 phosphorylation [6]: 50 nM
inhibition of FLT3 phosphorylation and downstream targets, in words [6]: somewhat decreased ability to inhibit phosphorylation
impact on BFU-E counts/growth [7]: no significant impact on BFU-E growth at any concentration
impact on CFU-G counts/growth [7]: less impact on CFU-G growth than gilteritinib
